Results on two molecules are retold here after PMC5620575 (Pharmaceutics, 2017).

Series [1] has as its system Escherichia coli. Also noted: method as in PMID 12467705, PMID 15911326, PMID 17140706, PMID 19376613, PMID 23811087. The settings on record: cited from earlier work.
The subject of series [2] is Staphylococcus aureus and Enterococci spp. Also noted: method as in PMID 12467705, PMID 15911326, PMID 17140706, PMID 19376613, PMID 23811087. The conditions noted are these: clinical isolates; cited from earlier work.
Series [3] in a line: pharmacokinetics after single IV administration. The format is in vivo. The settings on record: rabbit, 5 mg/kg; for AUC / half-life / k el: plasma; for AUC / half-life / CLT: n = 4; for k el: n = 4, read-out: Elimination rate constant (converted). The source says: IV administration of the compounds under investigation, and collection of blood samples were through a catheter inserted in the marginal ear vein of the rabbit (I-Cath, CharterMed Inc., Winston-Salem, NC, USA). After IV drug administration, blood was withdrawn to fill the cannula and then reinjected three times before obtaining any blood samples to prevent contamination. Furthermore, the cannula was flushed with heparinized saline to prevent blockage of the cannula and prevent sample to sample contamination.
Urine samples were collected utilizing Foly Catheter (size French 8). The catheter was inserted into the rabbit bladder using a lubricant. When urine is collected over a specific time interval, the bladder was irrigated with 3 × 15 mL normal saline at 3 min, 6 min, and 10 min before the end of the urine collection interval [15, 16]. Irrigation of the bladder is necessary to obtain the majority of the drug eliminated in urine during the collection interval.
Three groups of rabbits (n = 4, each) received 5 mg/kg dose of each compound via the IV catheter. This dose was selected based on the results of a preliminary experiment to achieve measurable plasma concentrations for 8 h using our analytical methods, to ensure good characterization of the plasma concentration-time profile. Accurately weighed Lzd and PH027 powder were dissolved first in 600 μL of ethanol using an ultrasound water bath. The resulting solution was then diluted with normal saline to produce the solutions used for IV administration, which consist of the dose of the compound dissolved in 3 mL of 20% ethanol in normal saline. PH051 required the use of slightly larger volume of ethanol to achieve complete dissolution. So, 900 μL of ethanol were used, and the resulting solution used for IV administration consisted of PH051 dose dissolved in 3 mL of 30% ethanol in normal saline. The difference in the volume of ethanol administered, 300 μL, which was necessary to ensure complete dissolution of PH051, should not have a significant effect on the pharmacokinetic behavior of PH051. The solutions were administered slowly over a period of […] administration, serial blood and urine samples were obtained over a period of 8 h. Plasma was obtained from blood by centrifugation, and samples were kept at −80 °C until analysis. The volumes of urine samples were determined and recorded, and aliquots were kept at −80 °C until analysis.
(§1) The pharmacokinetic parameters for each of the three compounds including half-life (t1/2), volume of distribution (Vd), elimination rate constant (k), area under the plasma concentration-time curve (AUC), total body clearance (CLT), renal clearance (CLR), and oral bioavailability (F) were determined using the general pharmacokinetic parameter calculation procedures using PKPD tools for Microsoft Excel. The obtained pharmacokinetic parameters for each compound were compared using Statistical Package of Social Sciences (SPSS) to determine the difference in the pharmacokinetic behavior for the three compounds.

A short description of series [4]: biopharmaceutical classification system (BCS) class. The conditions noted are these: assigned from lower aqueous solubility than Lzd and calculated Log P less than 1.7.
The test system of series [5] is Moraxella catarrhalis. On the set-up: method as in PMID 12467705, PMID 15911326, PMID 17140706, PMID 19376613, PMID 23811087. The conditions noted are these: cited from earlier work.
Series [6] deals with Streptococcus pneumoniae. On the set-up: method as in PMID 12467705, PMID 15911326, PMID 17140706, PMID 19376613, PMID 23811087. The settings on record: cited from earlier work.
Details of series [7]: method as in unpublished data from our laboratory. The conditions noted are these: rabbit urine after IV administration; ref unpublished data from our laboratory; cited from earlier work.
The nature of series [8]: tissue to plasma distribution. Format: in vivo. The conditions noted are these: New Zealand White, rabbit, 2 x 10 mg/kg IV, 2 h after second dose, n = 3. The procedure: Three groups of White New Zealand rabbits (n = 3, each) weighing 3.0–3.5 kg were used. Each group received 10 mg/kg of one compounds administered intravenously over a period of 3–5 min, followed one hour later by a second IV dose of 10 mg/kg. Two h later, the rabbits were euthanized with an IV dose of pentobarbital. Plasma and tissue samples, including kidney, liver, lungs, spleen, heart, muscles, and vetrus fluid were collected immediately, and stored at −80 °C until analysis.
Plasma ultra-filtrate samples were analyzed using the same procedures for the plasma. Tissue homogenates were prepared by adding 1 gm of the tissues samples to 4 g of phosphate buffer, pH 7.4 (1:4, w/w), then homogenization using Tissue-Tearor, Bio-Spec Products Inc. (Bartlesville, OK, USA). Aliquots of 200 μL of tissue homogenate samples were analyzed using the procedures for the plasma and the concentrations were determined using plasma calibrators as described and validated previously for Lzd and PH027 [18].
The tissue to plasma concentration ratios for the three compounds were calculated from the ratio of the tissue homogenate concentrations corrected for the dilution during the homoginization process and the plasma concentrations. Generally, the three compounds have very good distribution to all tissues. The tissue to plasma distribution ratios for the novel compounds were more than one in kidney, lung, liver, heart, muscles and spleen, and the ratios were more than those for Lzd in all investigated tissues. Table 3, summerizes the tissue to plasma distribution ratios for the three compounds in different tissues.

A short description of series [9]: pharmacokinetics after single oral administration as microemulsion. Format: in vivo. The settings on record: plasma, rabbit, 20 mg/kg, n = 3; for AUC / Cmax / Tmax: New Zealand White; for bioavailability: White New Zealand. On the procedure: Three groups of rabbits (n = 3, each) received 20 mg/kg oral dose of each compound in the form of microemulsion through a pediatric feeding tube. After administration, serial blood samples were obtained through the IV catheter, over a period of 10 h. Plasma was obtained from blood by centrifugation, and samples were kept at −80 °C until analysis.
as §1

In series [10] the test system is S. aureus Giorgio. Also noted: method as in ref unpublished data from Jin-Hwan Kwak at Handong Global University. The settings on record: oral suspension 1 and 4 h after infection, survival recorded for 72 h; ref unpublished data from Jin-Hwan Kwak at Handong Global University; cited from earlier work.
The mark [11] stands for this setting: brain, read-out: Tissue to Plasma Concentration Ratio, Brain.
[12] abbreviates: eye (vitreous fluid), read-out: Tissue to Plasma Concentration Ratio, Eye (vetrus fluid).
[13] abbreviates: heart, read-out: Tissue to Plasma Concentration Ratio, Heart.
Setting [14] is: kidney, read-out: Tissue to Plasma Concentration Ratio, Kidney.
[15] abbreviates: liver, read-out: Tissue to Plasma Concentration Ratio, Liver.
Setting [16] is: lung, read-out: Tissue to Plasma Concentration Ratio, Lung.
The mark [17] stands for this setting: muscle, read-out: Tissue to Plasma Concentration Ratio, Muscles.
Where [18] appears, read: spleen, read-out: Tissue to Plasma Concentration Ratio, Spleen.

Values after ≈ are worked out from the molar mass of the structure shown. Read-outs that look alike come from different tables or passages of the source.

In general, MIC refers to the smallest concentration in the dilution series that meets the test's criterion for growth inhibition. Usually AUC stands for the area under the concentration-time curve, a measure of exposure. A word on the half-life: it is the time in which the quantity being followed falls by half. Usually Cmax stands for the peak of the concentration-time curve. By Tmax is commonly meant the time from dosing to the highest level. As usually defined, the bioavailability is dose-corrected exposure relative to a reference, in per cent. A low value points to little systemic uptake. `O=C1O[C@@H](Cn2ccnn2)CN1c1ccc(N2CCN(C(=O)C(F)(F)F)CC2)c(F)c1` [PH051]: the MIC in series [1] is above 64 µg/mL; in [2], 0.25 to 0.5 µg/mL; in series [5] it was 8.0 µg/mL (≈ 18.1 µM); in series [6], 1.0 µg/mL (≈ 2.26 µM). Also, the results for the AUC in series [3] (White New Zealand) and in series [9] were 1950 ± 986 ng·h/mL and 1080 ± 426 ng·h/mL, respectively. For the same molecule, in [3] (White New Zealand), the half-life was found to be 2.92 ± 0.768 h. Moreover, in series [3] (White New Zealand), the k el is 6.6e-05 s⁻¹. In series [3], this molecule returned a CLT of 42.73 ± 20.2 mL/min/kg. Also, the “Fraction excreted unchanged in urine” value in series [3] (ratio of renal clearance to total body clearance) is on record as “only trace amounts”. In series [4], the BCS class result is “Class IV”. For the same molecule, the main metabolic route result in [7] was “amide hydrolysis”. In addition, the Kp at 2 h in [8] (setting [11]) came to 0.179 ± 0.07; in [8] (setting [12]), 0.81 ± 0.11; in series [8] (setting [13]), 1.56 ± 0.22; in series [8] (setting [14]), 2.22 ± 0.063; in series [8] (setting [15]), 1.7 ± 0.19; in series [8] (setting [16]), 1.5 ± 0.16. Moreover, the Kp at 2 h in series [8] (setting [17]) turned out to be 1.58 ± 0.21; in series [8] (setting [18]), 1.41 ± 0.27. In [9], this molecule displayed a Cmax of 731 ± 412 ng/mL. In addition, the time to peak (Tmax) in series [9] was 0.5 h. In addition, in [9], the bioavailability came to 13.9%. Also, the “in vivo activity against systemic mice infection” value in series [10] is given as “lower in vivo activity”.

On to `O=C1O[C@@H](Cn2ccnn2)CN1c1ccc(N2CCOCC2)c(F)c1` [PH027], for which the MIC was above 64 µg/mL in [1], 0.5 to 1.0 µg/mL in [2], above 16.0 µg/mL in [5] and 0.5 µg/mL (≈ 1.44 µM) in [6]. The results for the area under the curve (AUC) in [3] (White New Zealand) and in series [9] were 5670 ± 933 ng·h/mL and 16600 ng·h/mL, respectively. The half-life in [3] (White New Zealand) amounted to 1.15 ± 0.202 h. The k el in series [3] (White New Zealand) is 0.000168 s⁻¹. In addition, in series [3] (White New Zealand, urine and plasma, from renal excretion rate and plasma drug concentration, read-out: Renal clearance (converted)), the CL renal was 0.0633 mL/min/kg. Moreover, the CLT in [3] amounted to 14.7 ± 3.83 mL/min/kg. Also, the BCS class entry in [4] was “Class IV”. Moreover, the main metabolic route result in series [7] is given as “metabolized mainly through oxidation”. Further, the Kp at 2 h in [8] (setting [11]) was 0.223 ± 0.016; in series [8] (setting [12]), 0.989 ± 0.1; in series [8] (setting [13]), 1.36 ± 0.087; in series [8] (setting [14]), 2.78 ± 0.089; in [8] (setting [15]), 2.91 ± 0.168; in series [8] (setting [16]), 1.59 ± 0.041. For the same molecule, the Kp at 2 h in series [8] (setting [17]) came out at 1.25 ± 0.059; in series [8] (setting [18]), 1.51 ± 0.026. For the same molecule, the highest level in [9] (Cmax) was 2870 ± 392 ng/mL. Also, the time of peak concentration (Tmax) in [9] was 2 h. In addition, the bioavailability in series [9] is 72.9%. For the same molecule, the “in vivo activity against systemic mice infection” value in series [10] is listed as “lower in vivo activity”.
